According to publication PMC8248988, “A signal capture and proofreading mechanism for the KDEL-receptor explains selectivity and dynamic range in ER retrieval” (eLife, 2021):

Experiments:
[1] = test system: ERP44; assay: ER chaperone secretion assay, ERP44; format: cell-based, human
Source text: Figure 1. ER retrieval signal abundance and affinity are not correlated. (a) Sequence logos for ER resident proteins with C-terminal KDEL retrieval signals and variants thereof calculated using frequency or protein abundance ([Itzhak et al., 2017]; [Itzhak et al., 2016]). (b) Combined cellular concentrations of ER resident proteins with canonical KDEL, RDEL, and HDEL retrieval sequences in HeLa cells and mouse brain. (c) Competition binding assays for [^3H]-TAEHDEL and unlabelled TAEKDEL, TAERDEL, and TAEHDEL to the KDEL receptor. IC50 values for the competing peptides were used to calculate the apparent KDwith the Cheng-Prusoff equation ([Cheng and Prusoff, 1973]). (d) Endogenous KDEL receptor redistribution was measured in COS-7 cells in the absence (-ligand) or presence of K/R/H/A/DDEL (mScarlet-xDEL^sec). TGN46 was used as a Golgi marker. Scale bar is 10 µm. (e) The mean difference for K/R/H/A/DDEL comparisons against the shared no ligand control are shown as Cummings estimation plots. The individual data points for the fraction of KDEL receptor fluorescence in the Golgi are plotted on the upper axes with sample sizes and p values. Figure 1—source data 1. Source data for the ligand-induced KDELR receptor retrieval assays in Figure 1e. Figure 1—figure supplement 1. Abundance of ER resident proteins and chaperones in human cells and mouse brain. (a) The mean concentration of ER resident chaperones with the indicated ER retrieval sequence variant is plotted in the bar graph ([Itzhak et al., 2017]; [Itzhak et al., 2016]). […] Endogenous ER chaperone secretion was measured by western blotting after challenge with different retrieval signals, and plotted as a bar graph showing mean ± SEM (n = 3). […] (a) Distribution of human KDELR1 and (b) KDELR2 was measured in COS-7 cells in the absence (-ligand) or presence of K/R/H/A/DDEL retrieval signals (K/R/H/A/DDEL^sec). […] The fraction of KDEL receptor localised to the Golgi was measured before (no ligand) and after challenge with different retrieval signals as indicated. […]

[2] = test system: ERP72; assay: ER chaperone secretion assay, ERP72; format: cell-based, human
Source text: Figure 1. ER retrieval signal abundance and affinity are not correlated. (a) Sequence logos for ER resident proteins with C-terminal KDEL retrieval signals and variants thereof calculated using frequency or protein abundance ([Itzhak et al., 2017]; [Itzhak et al., 2016]). (b) Combined cellular concentrations of ER resident proteins with canonical KDEL, RDEL, and HDEL retrieval sequences in HeLa cells and mouse brain. (c) Competition binding assays for [^3H]-TAEHDEL and unlabelled TAEKDEL, TAERDEL, and TAEHDEL to the KDEL receptor. IC50 values for the competing peptides were used to calculate the apparent KDwith the Cheng-Prusoff equation ([Cheng and Prusoff, 1973]). (d) Endogenous KDEL receptor redistribution was measured in COS-7 cells in the absence (-ligand) or presence of K/R/H/A/DDEL (mScarlet-xDEL^sec). TGN46 was used as a Golgi marker. Scale bar is 10 µm. […] The individual data points for the fraction of KDEL receptor fluorescence in the Golgi are plotted on the upper axes with sample sizes and p values. […] Endogenous ER chaperone secretion was measured by western blotting after challenge with different retrieval signals, and plotted as a bar graph showing mean ± SEM (n = 3). […] (a) Distribution of human KDELR1 and (b) KDELR2 was measured in COS-7 cells in the absence (-ligand) or presence of K/R/H/A/DDEL retrieval signals (K/R/H/A/DDEL^sec). […]

[3] = mean, HeLa S3, 24 hr, Western blot densitometry

ADEL [pcDNA3.1 hGHss-mScarlet-H. sapiens BiP639-654K651A (ADEL^SEC), secreted mScarlet fusion with human BiP C-terminus, ADEL signal]
ERP44 secretion after challenge with retrieval signal [1, 3]: 11.8
ERP44 secretion after challenge with retrieval signal ([1]; replicate 1): 8.7
ERP44 secretion after challenge with retrieval signal ([1]; replicate 2): 14.9
ERP72 secretion after challenge with retrieval signal [2, 3]: 4.2
ERP72 secretion after challenge with retrieval signal ([2]; replicate 2): 1.0
